Patent US20250095772A1, “METHOD FOR IMPROVING THROUGHPUT OF COMPOUND-PROTEIN INTERACTION EXPERIMENTS” (SOUTHERN UNIVERSITY OF SCIENCE AND TECHNOLOGY, priority 2022, published 2025)

Legend:
K562 cell lysate [1] = assay: Single temperature point TPP target identification, 15 drugs pooled into 9 mixture systems (Example 1); format: binding; conditions: 15 compounds in 9 mixture systems (each in 3), each drug 40 μM, heated at 52° C. for 3 minutes, LASSO β threshold 0.1, — = no target identified
Text: In step S01: Fifteen drugs to be tested (i.e., the compounds to be tested) were given: Palbociclib, Panobinostat, Raltitrexed, Methotrexate, Vemurafenib, Fimepinostat, SCIO-469, SL-327, 5-Fluorouracil, Olaparib, Belumosudil, OTS964, Parthenolide, CCT137690, […], which are sequentially numbered as compound to be tested 1, compound to be tested 2, compound to be tested 3, . . . and compound to be tested 15. It is assumed here that the above fifteen compounds to be tested are mixed into nine mixture systems: mixture system 1, mixture system 2, mixture system 3, . . . and mixture system 9, and each compound to be tested was included in three different mixture systems, that is, m=9, n=15, a=3. The nine mixture systems are mapped into a 9x15 initial permutation matrix A of the compounds to be tested, and the initial permutation matrix A is randomly initialized so that the numerical values in the matrix A are random floating-point numbers between 0 and 1.
The initial permutation matrix A of the compounds to be tested was iteratively optimized through a genetic algorithm to minimize the value of the objective function L; the permutation matrix A is subjected to the binary conversion in step S02 when the value of the objective function L is the minimum to obtain the optimized permutation matrix S (as shown in FIG. 3), the optimized permutation matrix S is the final permutation matrix. […] In FIGS. 2 and 3, the black grid represents the numerical value 1, and the white grid represents the numerical value 0. During the iteration process, the value of the objective function L decreases to a constant value as the number of iterations increases, as shown in FIG. 4. The fifteen compounds to be tested were mixed according to the finally-obtained 9×15 optimized permutation matrix shown in FIG. 3, and nine mixture systems were obtained.
(§1) In step S04: DMSO as a solvent was added to each mixture system in step S03 to enable a concentration of each drug to reach 40 μM, and then the single temperature point TPP method is applied to measure the interaction between each mixture system and the protein. The specific experimental steps are that: equal amounts of K562 cell lysate were mixed with a drug mixture system, incubated at room temperature for 10 minutes, then heated at 52° C. for 3 minutes, and then quickly cooled to 4° C. on a PCR machine. The samples were centrifuged at 21,000 rcf for 20 minutes at 4° C., and the supernatant was collected. According to the mass spectrometry-based proteomics quantification method, each sample was enzymatically digested and TMT labeled, and then the LC-MS mass spectrometry was used for measurement to obtain the content of protein. Based on the principle of the TPP method, the thermal stability of the protein can be improved through a combination with compounds. Therefore, if a protein can interact with the mixed system, then the content of protein measured by mass spectrometry will be higher, and vice versa.
(§2) In step S05: Nine measured values Yi obtained from the interaction between the nine mixture systems and the target protein are marked as response vectors Y; the response vectors Y were normalized so that the numerical values of the response vectors are between 0 and 1. The response vector Y and the permutation matrix S meet a relational expression of:
Where, Yi represents a response value of the ability of the mixture system identified as i among the nine mixture systems to interact with the target protein, and βj is a contribution of the compound to be tested identified as j in the mixture system identified as i to the response value of the mixture system identified as i, βj is a coefficient vector with a length n, and R is a residual vector with a length […].
the LASSO regression method is applied to obtain an optimal solution of β based on the following expression: […]

K562 cell lysate [2] = assay: Single temperature point TPP target identification, 25 drugs pooled into 14 mixture systems (Example 2); format: binding; conditions: 25 compounds in 14 mixture systems (each in 4), remaining steps as Example 1 (40 μM, K562 cell lysate, 52° C., LASSO β threshold 0.1); — = no target identified
Procedure: as §1, with “Based on the principle of the TPP method, the thermal stability of the protein can be improved through a combination with compounds.” left out
as §2
Where, λ is a penalty term, which is used to adjust a compression degree of β, in this embodiment, the value of λ is 0.1 and the threshold is 0.1.
It is assumed that the above twenty-five compounds to be tested are mixed into fourteen mixture systems: mixture system 1, mixture system 2, mixture system 3, . . . and mixture system 14. Each compound to be tested was included in four different mixture systems. That is, m=14, n=25, a=4. […] In FIG. 5, the black grid represents the numerical value of 1, and the white grid represents the numerical value of 0. […] The twenty-five compounds to be tested were mixed according to the finally obtained 14×25 optimized permutation matrix S shown in FIG. 5, to obtain fourteen mixture systems.

| SMILES | Successfully Identified Target(s) (K562 cell lysate [1]) | Successfully Identified Target(s) (K562 cell lysate [2]) |
| --- | --- | --- |
| Cc1cc(CN2CCN(c3c(Br)cnc4nc(-c5ccc(N6CCN(C)CC6)cc5)[nH]c34)CC2)no1 [CCT137690] | AURKA | – |
| COC(=O)N[C@@H](C)CNc1nccc(-c2cn(C(C)C)nc2-c2cc(Cl)cc(NS(C)(=O)=O)c2F)n1 [Encorafenib] | – | BRAF |
| COc1ccc(-c2nc(N3CCOCC3)c3sc(CN(C)c4ncc(C(=O)NO)cn4)cc3n2)cn1 [Fimepinostat] | HDAC1 | HDAC1 |
| CN(Cc1cnc2nc(N)nc(N)c2n1)c1ccc(C(=O)N[C@@H](CCC(=O)O)C(=O)O)cc1 [Methotrexate] | DHFR | DHFR |
| O=C(c1cc(Cc2n[nH]c(=O)c3ccccc23)ccc1F)N1CCN(C(=O)C2CC2)CC1 [Olaparib] | PARP1 | PARP1 |
| CC(C)(C)Cn1c(N)nc2ccc(-c3[nH]c(C(C)(C)C)nc3-c3ccc(F)cc3)nc21 [Ralimetinib] | MAPK14 | MAPK14 |
| Cc1nc2ccc(CN(C)c3ccc(C(=O)N[C@@H](CCC(=O)O)C(=O)O)s3)cc2c(=O)[nH]1 [Raltitrexed] | TYMS | TYMS |
| C[C@@H]1CN(Cc2ccc(F)cc2)[C@@H](C)CN1C(=O)c1cc2c(C(=O)C(=O)N(C)C)cn(C)c2cc1Cl [SCIO-469] | MAPK14 | MAPK14 |
